Test results from article PMC5572671 (Biomaterials, 2017).
Read-outs that look alike come from different tables or passages of the source.

How the values were obtained:
[1] = cited from earlier work
[2] = test system: Caco-2 monolayers
[3] = test system: Caco-2 monolayers; conditions: standard Caco-2 assay on collagen type-I; cited from earlier work
[4] = test system: Caco-2 monolayers; experiment: Caco-2 monolayer drug transport assay; conditions: Fig. 6; 2 h; LC-MS

C[C@@H]1C[C@H]2[C@@H]3CCC4=CC(=O)C=C[C@]4(C)[C@@]3(F)[C@@H](O)C[C@]2(C)[C@@]1(O)C(=O)CO [dexamethasone]
in vivo absorption [1]: > 85%

NC(N)=Nc1nc(CSCCC(N)=NS(N)(=O)=O)cs1 [famotidine]
in vivo absorption [1]: 35%

CNC(=C[N+](=O)[O-])NCCSCc1ccc(CN(C)C)o1 [ranitidine]
in vivo absorption [1]: 51% | Papp for cells on eECM with decreased CBD and decreased stiffness compared to cells grown on collagen [2]: significantly higher | absorption predicted by the Caco-2 assay [3]: little to no absorption

CC(C)(C)NCC(O)COc1cccc2c1CC(O)C(O)C2 (stereo not shown) [nadolol]
in vivo absorption [1]: 45% | Papp for cells on eECM with decreased CBD and decreased stiffness compared to cells grown on collagen [4]: significantly higher
